Drawing on paper PMC6934184, “Selective DNA-PKcs inhibition extends the therapeutic index of localized radiotherapy and chemotherapy” (The Journal of Clinical Investigation, 2019), this text covers inhibition for 1 molecule.

This assay deals with T1, IGF1R (Homo sapiens, UniProt P08069).
T1 construct: purchased Thermo Fisher Scientific (Life Technologies) SelectScreen
Kind of assay: SelectScreen Z'LYTE. In kind it is biochemical. Put shortly:
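SelectScreen broad panel; activity (Z'LYTE, Adapta) plus binding formats. ATP: Km app for CSF1R Z'LYTE; 10 for CAMK1 Adapta. Readout = % per kinase.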

T1 sequence (P08069 31-1367): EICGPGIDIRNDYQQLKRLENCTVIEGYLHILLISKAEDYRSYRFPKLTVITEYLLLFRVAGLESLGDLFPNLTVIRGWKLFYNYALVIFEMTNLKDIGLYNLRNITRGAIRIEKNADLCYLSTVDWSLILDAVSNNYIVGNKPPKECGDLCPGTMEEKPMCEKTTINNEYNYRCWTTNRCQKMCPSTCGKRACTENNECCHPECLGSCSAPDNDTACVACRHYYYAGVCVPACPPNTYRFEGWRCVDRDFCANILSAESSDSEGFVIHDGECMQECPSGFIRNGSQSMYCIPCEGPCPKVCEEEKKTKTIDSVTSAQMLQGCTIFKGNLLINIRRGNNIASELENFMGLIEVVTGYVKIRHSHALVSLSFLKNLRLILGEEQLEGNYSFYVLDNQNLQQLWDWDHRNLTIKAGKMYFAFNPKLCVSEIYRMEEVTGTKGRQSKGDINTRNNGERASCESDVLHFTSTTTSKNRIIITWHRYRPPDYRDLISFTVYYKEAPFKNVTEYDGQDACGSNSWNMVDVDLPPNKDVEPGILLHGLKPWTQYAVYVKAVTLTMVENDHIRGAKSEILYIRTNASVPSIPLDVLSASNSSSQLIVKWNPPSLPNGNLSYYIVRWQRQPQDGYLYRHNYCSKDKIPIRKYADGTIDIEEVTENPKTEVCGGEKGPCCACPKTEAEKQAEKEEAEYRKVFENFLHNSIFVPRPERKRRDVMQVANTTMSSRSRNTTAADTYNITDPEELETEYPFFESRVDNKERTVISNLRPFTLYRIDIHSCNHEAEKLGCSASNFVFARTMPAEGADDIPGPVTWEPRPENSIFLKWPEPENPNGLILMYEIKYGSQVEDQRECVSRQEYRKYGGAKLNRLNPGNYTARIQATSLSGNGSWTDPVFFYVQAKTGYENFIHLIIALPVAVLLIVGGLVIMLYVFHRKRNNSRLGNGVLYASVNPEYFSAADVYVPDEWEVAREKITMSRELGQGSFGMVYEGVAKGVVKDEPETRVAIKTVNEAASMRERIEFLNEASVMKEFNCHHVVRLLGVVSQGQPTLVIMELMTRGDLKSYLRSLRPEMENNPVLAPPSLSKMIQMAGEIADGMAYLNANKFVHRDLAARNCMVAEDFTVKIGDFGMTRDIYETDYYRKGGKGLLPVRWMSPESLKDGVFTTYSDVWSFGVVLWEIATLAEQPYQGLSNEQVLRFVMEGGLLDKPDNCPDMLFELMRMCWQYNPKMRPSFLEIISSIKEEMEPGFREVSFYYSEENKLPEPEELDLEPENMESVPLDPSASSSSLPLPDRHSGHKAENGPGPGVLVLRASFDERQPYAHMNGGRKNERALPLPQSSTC

For the molecule `CN(C(=O)CN1CCOCC1)c1ccc2sc3c(-c4cccc5c(=O)cc(N6CC7CCC(C6)O7)oc45)cccc3c2c1` [NU5455], the inhibition (commonly how much of the control response was suppressed) at 1 µM was 9.7%.
